Laboratory results as given in patent US11433055B2, “Chromane monobactam compounds for the treatment of bacterial infections” (priority 2017, dated 2022).
Structures can show the parent of a compound that is named as a salt. Where two headings read alike, the source gives them in different places.

What was measured:
Type in all cases: cell-based
Conditions in all cases: lowest concentration inhibiting 95% of bacterial growth, in the presence of β lactamase inhibitor (BLi, Relebactam), 22 hours, 35±2° C., OD600
[1] = test system: Pseudomonas aeruginosa expressing AmpC (CL5701)
Experimental: (§1) Antibiotic Activity: Determination of Growth Inhibitory Concentration
(§2) The concentrations of compounds required to inhibit the growth of various strains of bacteria were determined in an assay that assessed bacterial growth by measuring optical density at 600 nm (OD600). The bacterial strains tested included the clinical strains Escherichia coli expressing NDM-1 (CLB30016), Klebsiella pneumoniae expressing KPC-1 (CL6569), Acinetobacter baumannii expressing TEM-1, AmpC, and Oxa-24/40 (CL6188) and Pseudomonas aeruginosa expressing AmpC (CL5701). All compounds were tested in the presence of a β lactamase inhibitor (BLi, Relebactam) in 384-well microplates. The clinical strains were stored as frozen single use stocks, thawed and diluted into 1.1× cation-adjusted Mueller-Hinton II broth to achieve approximately 2×10^5 CFU/mL. Test compounds were dissolved in DMSO and diluted 1:50 in the assay, resulting in a final concentration range of 100 μM to 0.098 μM. On the day of the assay, 1 μL of test compound was added to the plate followed by 4 μL of 50 μg/mL BLi in MOPS buffer and 45 μL of diluted bacteria. Plates were centrifuged at 1000 rpm for 30 seconds, shaken at approximately 800 rpm for 1 minute, and incubated at 35±2° C. for 22 hours. The concentration of BLi used in the assay was […]. At the end of the incubation, absorbance at 600 nm was determined using a spectrophotometer. Inhibition was quantitated by identifying the lowest concentration of test compound that was required to inhibit 95% of the growth of the bacteria. The results for Examples 1-39 are reported in Table I, expressed as the concentration of compound that inhibited 95% of bacterial growth (Minimum Inhibitory Threshold Concentration; MITC95).

[2] = test system: Escherichia coli expressing NDM-1 (CLB30016)
Experimental: as §1, §2

[3] = test system: Klebsiella pneumoniae expressing KPC-1 (CL6569)
Experimental: as §1, §2

[4] = test system: Acinetobacter baumannii expressing TEM-1, AmpC, and Oxa-24/40 (CL6188)
Experimental: as §1, §2

SMILES	PA_CL5701 MITC95 [1] [µM]	EC_CLB30016 MITC95 [2] [µM]	KP_CL6569 MITC95 [3] [µM]	AB_CL6188 MITC95 [4] [µM]	PA_CL5701 MITC95 ([1]; sulfate formate) [µM]	EC_CLB30016 MITC95 ([2]; sulfate formate) [µM]	KP_CL6569 MITC95 ([3]; sulfate formate) [µM]	AB_CL6188 MITC95 ([4]; sulfate formate) [µM]
CC1(C)[C@H](NC(=O)/C(=N\O[C@](C)(C(=O)O)[C@H]2CCc3cc(C4=CN=C(NCCCN)NC4)ccc3O2)c2csc(N)n2)C(=O)N1OS(=O)(=O)O [Example 32, 2-((3-aminopropyl)amino)-5-((R)-2-((S)-1-((((Z)-1-(2-aminothiazol-4-yl)-2-(((S)-2,2-dimethyl-4-oxo-1-(sulfooxy)azetidin-3-yl)amino)-2-oxoethylidene)amino)oxy)-1-carboxyethyl)chroman-6-yl)-3,4-dihydropyrimidin-1-ium Formate]	3.125	3.125	0.1953	3.125				
CC1(C)[C@H](NC(=O)/C(=N\O[C@](C)(C(=O)O)[C@H]2CCc3cc(-c4cn(CCCN)c(=N)n4C[C@H](O)CO)ccc3O2)c2csc(N)n2)C(=O)N1OS(=O)(=O)O [Example 9, (S)-3-((Z)-2-(((S)-1-((R)-6-(1-(3-aminopropyl)-3-((S)-2,3-dihydroxypropyl)-2-imino-2,3-dihydro-1H-imidazol-4-yl)chroman-2-yl)-1-carboxyethoxy)imino)-2-(2-aminothiazol-4-yl)acetamido)-2,2-dimethyl-4-oxoazetidin-1-yl sulfate]	6.25	12.5	0.3906	12.5				
C[n+]1cc(-c2ccc3c(c2)CC[C@H]([C@](C)(O/N=C(\C(=O)N[C@@H]2C(=O)N(OS(=O)(=O)[O-])C2(C)C)c2csc(N)n2)C(=O)O)O3)cnc1NC[C@H](O)CN.O=CO [Example 17, (S)-3-((Z)-2-(2-aminothiazol-4-yl)-2-(((S)-1-((R)-6-(2-(((R)-3-ammonio-2-hydroxy-propyl)amino)-1-methyl-pyrimidin-1-ium-5-yl)chroman-2-yl)-1-carboxy-ethoxy)imino)acetamido)-2,2-dimethyl-4-oxoazetidin-1-yl sulfate formate]	6.25	6.25	0.3906	12.5				
CC1(C)[C@H](NC(=O)/C(=N\O[C@](C)(C(=O)O)[C@H]2CCc3cc(-c4ccc(NCCN)[n+](CC5CNC5)c4)ccc3O2)c2csc(N)n2)C(=O)N1OS(=O)(=O)[O-].O=CO [Example 14, (S)-3-((Z)-2-(((S)-1-((R)-6-(6-((2-aminoethyl)amino)-1-(azetidin-1-ium-3-ylmethyl)pyridin-1-ium-3-yl)chroman-2-yl)-1-carboxyethoxy)imino)-2-(2-aminothiazol-4-yl)acetamido)-2,2-dimethyl-4-oxoazetidin-1-yl Sulfate Formate]	12.5	12.5	0.7813	50				
C[n+]1cc(-c2ccc3c(c2)CC[C@H]([C@](C)(O/N=C(\C(=O)N[C@@H]2C(=O)N(OS(=O)(=O)[O-])C2(C)C)c2csc(N)n2)C(=O)O)O3)ccc1NC(CN)CN.O=CO [Example 23A, (3S)-3-((Z)-2-(((1S)-1-((2R)-6-(6-((1-amino-3-ammoniopropan-2-yl)amino)-1-methylpyridin-1-ium-3-yl)chroman-2-yl)-1-carboxyethoxy)imino)-2-(2-aminothiazol-4-yl)acetamido)-2,2-dimethyl-4-oxoazetidin-1-yl sulfate formate]					3.125	12.5	0.3906	6.25
CC1(C)[C@H](NC(=O)/C(=N\O[C@](C)(C(=O)O)[C@H]2CCc3cc(-c4ccc(NCCCN)[n+](CCCN)c4)ccc3O2)c2csc(N)n2)C(=O)N1OS(=O)(=O)[O-].O=CO [Example 21, (S)-3-((Z)-2-(((S)-1-((R)-6-(1-(3-aminopropyl)-6-((3-ammoniopropyl)amino)pyridin-1-ium-3-yl)chroman-2-yl)-1-carboxyethoxy)imino)-2-(2-aminothiazol-4-yl)acetamido)-2,2-dimethyl-4-oxoazetidin-1-yl sulfate formate]	12.5	6.25	0.3906	3.125				
C[n+]1cc(-c2ccc3c(c2)OCC(CO/N=C(\C(=O)N[C@@H]2C(=O)N(OS(=O)(=O)[O-])C2(C)C)c2csc(N)n2)C3)ccc1NCCN.O=C(O)C(F)(F)F (single isomer, unassigned) [Example 37A]	3.13	12.5	0.78	12.5				
CC1(C)[C@H](NC(=O)/C(=N\O[C@](C)(C(=O)O)[C@H]2CCc3cc(C4CN=C(NC(CN)CN)NC4)ccc3O2)c2csc(N)n2)C(=O)N1OS(=O)(=O)O.O=CO (stereo partly drawn) [Example 31, 5-((R)-2-((S)-1-((((Z)-1-(2-aminothiazol-4-yl)-2-(((S)-2,2-dimethyl-4-oxo-1-(sulfooxy)azetidin-3-yl)amino)-2-oxoethylidene)amino)oxy)-1-carboxyethyl)chroman-6-yl)-2-((1,3-diaminopropan-2-yl)amino)-3,4,5,6-tetrahydropyrimidin-1-ium formate]	3.125	6.25	0.3906	3.125				
C[n+]1cc(-c2ccc3c(c2)CC[C@H]([C@](C)(O/N=C(\C(=O)N[C@@H]2C(=O)N(OS(=O)(=O)[O-])C2(C)C)c2csc(N)n2)C(=O)O)O3)cnc1NC[C@@H](O)CN.O=CO [Example 18, (S)-3-((Z)-2-(2-aminothiazol-4-yl)-2-(((S)-1-((R)-6-(2-(((S)-3-ammonio-2-hydroxy-propyl)amino)-1-methylpyrimidin-1-ium-5-yl)chroman-2-yl)-1-carboxy-ethoxy)imino)acetamido)-2,2-dimethyl-4-oxoazetidin-1-yl sulfate formate]	6.25	6.25	0.3906	3.125				
C[n+]1cc(-c2ccc3c(c2)CC[C@H]([C@](C)(O/N=C(\C(=O)N[C@@H]2C(=O)N(OS(=O)(=O)[O-])C2(C)C)c2csc(N)n2)C(=O)O)O3)cnc1NC(CN)CN.O=CO [Example 24, (3S)-3-((Z)-2-(((1S)-1-((2R)-6-(2-((1-amino-3-ammonio-propan-2-yl)amino)-1-methyl-pyrimidin-1-ium-5-yl)chroman-2-yl)-1-carboxyethoxy)imino)-2-(2-aminothiazol-4-yl)acetamido)-2,2-dimethyl-4-oxoazetidin-1-yl sulfate formate]	3.125	3.125	0.3906	1.563				
C[n+]1cc(-c2ccc3c(c2)CC[C@@H](CO/N=C(\C(=O)N[C@@H]2C(=O)N(OS(=O)(=O)[O-])C2(C)C)c2csc(N)n2)O3)ccc1NCCN [Example 36, mono((R)-3-((Z)-2-(2-aminothiazol-3-ium-4-yl)-2-((((S)-6-(6-((2-ammonioethyl)amino)-1-methyl-pyridin-1-ium-3-yl)chroman-2-yl)methoxy)imino)acetamido)-2,2-dimethyl-4-oxoazetidin-1-yl sulfate) mono(2,2,2-trifluoroacetate)]	6.25	12.5	0.7813	3.125				
CC1(C)[C@H](NC(=O)/C(=N\OCC2CCc3cc(C(=N)NCCN)ccc3O2)c2csc(N)n2)C(=O)N1OS(=O)(=O)O (stereo partly drawn) [Example 13, (3S)-3-((Z)-2-(((6-(N-(2-aminoethyl)carbamimidoyl)chroman-2-yl)methoxy)imino)-2-(2-aminothiazol-4-yl)acetamido)-2,2-dimethyl-4-oxoazetidin-1-yl hydrogen sulfate]	12.5	12.5	0.7813	25				
